Laboratory results: paper PMC7111793 (Tetrahedron, 2006)
Peptide text beside a SMILES is read from it. * marks the point of attachment. Cbz = O=C(OCc1ccccc1)*; CF3 = FC(F)(F)*

Biological target: SARS-CoV 3CL^pro (Severe acute respiratory syndrome coronavirus, UniProt P0C6X7)
Format: biochemical

CC(C)C[C@H](NC(=O)[C@@H](NC(=O)[C@H](C)NC(=O)OCc1ccccc1)C(C)C)C(=O)N[C@@H](CCC(N)=O)C(=O)C(F)(F)F [Compound 4, (S)-4-[N-(Benzyloxycarbonyl)-L-alanyl-L-valyl-L-leucyl]amino-6,6,6-trifluoro-5-oxohexanamide] (Cbz-AVLQ-CF3)
inhibitory activity in words: moderate SARS-CoV 3CL^pro inhibitors
